Test results from patent US20240158446A1, “CYCLIC COMPOUND HAVING SELECTIVE INHIBITORY ACTION ON KRAS OVER HRAS AND NRAS” (CHUGAI SEIYAKU KABUSHIKI KAISHA, priority 2021, published 2024).
pIC50, pKd: −log10 of the molar value. Read-outs that look alike come from different tables or passages of the source.

Key:
[1] = biological target: GDP-bound KRAS wild-type protein (Homo sapiens, UniProt P01116); assay: Binding to KRAS by surface plasmon resonance (SPR), Single Cycle Kinetics; conditions: SPR, Single Cycle Kinetics, GDP-bound KRAS wild-type protein, read-out: KRAS KD
Sequence of GDP-bound KRAS wild-type protein (P01116 whole entry): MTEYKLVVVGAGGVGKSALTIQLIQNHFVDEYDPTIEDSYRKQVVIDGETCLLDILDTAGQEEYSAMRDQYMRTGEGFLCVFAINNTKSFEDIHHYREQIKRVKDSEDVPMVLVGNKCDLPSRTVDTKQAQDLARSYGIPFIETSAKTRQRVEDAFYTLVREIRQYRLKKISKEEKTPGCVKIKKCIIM

[2] = tested on: human lung cancer strain NCI-H441;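 note: cell proliferation inhibition after four days measured by CellTiter-Glo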
[3] = biological target: GDP-bound NRAS wild-type protein (Homo sapiens, UniProt P01111); assay: Binding to NRAS by surface plasmon resonance (SPR), Single Cycle Kinetics; conditions: SPR; for NRAS/KRAS (ratio of KD value for NRAS to KD value for KRAS): GDP-bound NRAS wild-type protein vs GDP-bound KRAS wild-type protein, KD ratio class; for NRAS/KRAS (KD ratio): ratio of KD for GDP-bound NRAS wild-type protein to KD for KRAS
Sequence of GDP-bound NRAS wild-type protein (P01111 whole entry): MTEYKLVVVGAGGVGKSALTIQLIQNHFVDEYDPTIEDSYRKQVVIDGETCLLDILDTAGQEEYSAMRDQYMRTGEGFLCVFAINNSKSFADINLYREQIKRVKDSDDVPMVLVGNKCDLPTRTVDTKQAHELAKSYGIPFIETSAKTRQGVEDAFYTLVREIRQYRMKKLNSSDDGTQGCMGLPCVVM

[4] = biological target: GDP-bound HRAS wild-type protein (Homo sapiens, UniProt P01112); assay: Binding to HRAS by surface plasmon resonance (SPR), Single Cycle Kinetics; conditions: SPR; for HRAS/KRAS (ratio of KD value for HRAS to KD value for KRAS): GDP-bound HRAS wild-type protein vs GDP-bound KRAS wild-type protein, KD ratio class; for HRAS/KRAS (KD ratio): ratio of KD for GDP-bound HRAS wild-type protein to KD for KRAS
Sequence of GDP-bound HRAS wild-type protein (P01112 whole entry): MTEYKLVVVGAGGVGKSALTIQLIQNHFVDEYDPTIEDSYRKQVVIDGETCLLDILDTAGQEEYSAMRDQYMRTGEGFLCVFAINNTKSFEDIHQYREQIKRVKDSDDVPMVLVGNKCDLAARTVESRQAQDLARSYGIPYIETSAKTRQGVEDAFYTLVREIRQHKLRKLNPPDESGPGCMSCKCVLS

[5] = read-out: NCI-H441 IC50, NCI-H441 cell proliferation, 4 days, CellTiter-Glo

Compound	pKd ([1]; 1:1 binding model)	pIC50 [2]	NRAS/KRAS (ratio of KD value for NRAS to KD value for KRAS) [3]	HRAS/KRAS (ratio of KD value for HRAS to KD value for KRAS) [4]	pKd [1]	pIC50 [2, 5]	NRAS/KRAS (KD ratio) [3]	HRAS/KRAS (KD ratio) [4]
CC[C@H](C)[C@@H]1NC(=O)[C@H](CC(C)C)N(C)C(=O)C[C@@H](C(=O)N(C)C)N(C)C(=O)[C@H](C2CCCC2)N(C)C(=O)C2(CC(C)(C)C2)NC(=O)[C@@H]2C[C@@H](F)CN2C(=O)[C@H](CCc2cc(F)c(C(F)(F)F)c(F)c2)NC(=O)CN(C)C(=O)[C@H](Cc2ccc(C(F)(F)F)cc2)N2CC/C=C\C[C@@H](C2=O)N(C)C(=O)CN(C)C1=O [PP1566]	10.59	8.64	A (a compound having 10 or more and less than 20 is denoted as A)	A (a compound having 10 or more and less than 20 is denoted as A)	–	–	–	–
CCO[C@@H]1C[C@H]2C(=O)NC3(CC(C)(C)C3)C(=O)N(C)[C@@H](C3CCCC3)C(=O)N(C)[C@H](C(=O)N(CC)CC)CC(=O)N(C)[C@@H](CC)C(=O)N[C@@H]([C@@H](C)CC)C(=O)N(C)CC(=O)N(C)[C@H]3C/C=C\CCN(C3=O)[C@@H](Cc3ccc(C(F)(F)F)cc3)C(=O)N(C)CC(=O)N[C@@H](CCc3cc(F)c(C(F)(F)F)c(F)c3)C(=O)N2C1 [PP1580]	9.77	8.01	A (a compound having 10 or more and less than 20 is denoted as A)	A (a compound having 10 or more and less than 20 is denoted as A)	–	–	–	–
CCO[C@@H]1C[C@H]2C(=O)NC3(CC(C)(C)C3)C(=O)N(C)[C@@H](C3CCCC3)C(=O)N(C)[C@H](C(C)C)CC(=O)N(C)[C@@H](CC)C(=O)N[C@@H]([C@@H](C)CC)C(=O)N(C)CC(=O)N(C)[C@H]3C/C=C\CCN(C3=O)[C@@H](Cc3ccc(C(F)(F)F)cc3)C(=O)N(C)CC(=O)N[C@@H](CCc3cc(F)c(C(F)(F)F)c(F)c3)C(=O)N2C1 [PP1588]	9.22	7.62	B (a compound having 3 or more and less than 10 is denoted as B)	B (a compound having 3 or more and less than 10 is denoted as B)	–	–	–	–
CCCC[C@H]1C(=O)N[C@@H]([C@@H](C)CC)C(=O)N(C)CC(=O)N(C)[C@H]2C/C=C\CCN(C2=O)[C@@H](Cc2ccc(C(F)(F)F)cc2)C(=O)N(C)CC(=O)N[C@@H](CCc2cc(F)c(C(F)(F)F)c(F)c2)C(=O)N2C[C@H](OCC)C[C@H]2C(=O)NC2(CC(F)(F)C2)C(=O)N(C)[C@@H](C2CCCC2)C(=O)N(C)[C@H](C(=O)N(C)C)CC(=O)N1C [PP1740]	–	–	–	–	10.28	8.44	A (a compound having 10 or more and less than 20 is denoted as A)	A (a compound having 10 or more and less than 20 is denoted as A)
CC[C@H](C)[C@@H]1NC(=O)[C@H](CC(C)C)N(C)C(=O)C[C@@H](C(=O)N(C)C)N(C)C(=O)[C@H](C2CCCC2)N(C)C(=O)C2(CCC2)N(C)C(=O)[C@@H]2CCCN2C(=O)[C@H](CCc2cc(F)c(C(F)(F)F)c(F)c2)NC(=O)CN(C)C(=O)[C@H](Cc2ccc(C)cc2)N2CC/C=C\C[C@@H](C2=O)N(C)C(=O)CN(C)C1=O [PP1791]	–	–	–	–	10.38	8.43	A (a compound having 10 or more and less than 20 is denoted as A)	A (a compound having 10 or more and less than 20 is denoted as A)
